Target: T1, zfT1R2a/zfT1R3 (Danio rerio, UniProt A0A8M1N8F9+Q2MHK9)
T1 sequence (A0A8M1N8F9 26-825): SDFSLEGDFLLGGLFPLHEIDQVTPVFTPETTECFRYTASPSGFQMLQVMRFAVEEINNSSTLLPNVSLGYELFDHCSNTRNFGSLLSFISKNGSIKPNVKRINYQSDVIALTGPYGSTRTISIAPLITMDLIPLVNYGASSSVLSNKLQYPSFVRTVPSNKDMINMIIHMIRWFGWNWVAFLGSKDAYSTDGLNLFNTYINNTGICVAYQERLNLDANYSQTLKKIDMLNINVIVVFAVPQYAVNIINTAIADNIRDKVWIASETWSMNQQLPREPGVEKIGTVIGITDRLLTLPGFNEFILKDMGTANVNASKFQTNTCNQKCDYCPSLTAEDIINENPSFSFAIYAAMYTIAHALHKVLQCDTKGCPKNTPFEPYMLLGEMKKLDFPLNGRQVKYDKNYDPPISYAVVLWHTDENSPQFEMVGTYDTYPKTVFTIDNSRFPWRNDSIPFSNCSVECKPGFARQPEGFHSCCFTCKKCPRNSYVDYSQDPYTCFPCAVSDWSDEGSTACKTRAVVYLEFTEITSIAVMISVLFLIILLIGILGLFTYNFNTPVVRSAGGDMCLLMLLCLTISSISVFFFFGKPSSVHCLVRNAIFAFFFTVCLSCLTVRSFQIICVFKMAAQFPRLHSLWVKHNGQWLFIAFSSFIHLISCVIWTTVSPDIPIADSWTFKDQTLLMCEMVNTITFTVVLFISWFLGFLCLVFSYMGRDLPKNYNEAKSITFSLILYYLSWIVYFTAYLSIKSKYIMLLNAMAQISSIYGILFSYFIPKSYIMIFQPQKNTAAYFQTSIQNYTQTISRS
T1 sequence (Q2MHK9 25-850): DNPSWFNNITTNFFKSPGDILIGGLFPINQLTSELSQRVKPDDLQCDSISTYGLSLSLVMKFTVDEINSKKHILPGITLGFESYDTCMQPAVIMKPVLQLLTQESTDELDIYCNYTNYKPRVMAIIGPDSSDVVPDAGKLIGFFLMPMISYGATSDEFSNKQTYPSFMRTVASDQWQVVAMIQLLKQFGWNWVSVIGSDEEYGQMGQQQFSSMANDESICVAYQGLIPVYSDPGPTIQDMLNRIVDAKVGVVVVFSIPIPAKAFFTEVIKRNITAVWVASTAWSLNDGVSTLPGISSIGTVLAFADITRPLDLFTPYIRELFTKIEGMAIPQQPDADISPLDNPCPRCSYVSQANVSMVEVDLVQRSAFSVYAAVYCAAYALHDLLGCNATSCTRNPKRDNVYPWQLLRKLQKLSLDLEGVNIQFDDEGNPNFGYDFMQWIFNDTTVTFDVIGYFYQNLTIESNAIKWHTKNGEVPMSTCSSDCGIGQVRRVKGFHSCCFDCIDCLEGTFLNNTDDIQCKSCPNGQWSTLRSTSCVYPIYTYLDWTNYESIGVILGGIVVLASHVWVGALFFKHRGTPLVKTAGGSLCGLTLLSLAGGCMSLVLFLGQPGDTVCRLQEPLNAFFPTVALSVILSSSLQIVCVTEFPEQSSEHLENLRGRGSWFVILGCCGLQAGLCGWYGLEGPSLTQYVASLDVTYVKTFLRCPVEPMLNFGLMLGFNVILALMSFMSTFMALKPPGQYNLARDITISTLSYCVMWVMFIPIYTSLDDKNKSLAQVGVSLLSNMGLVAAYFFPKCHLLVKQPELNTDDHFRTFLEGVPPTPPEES
Assay: Effect of anions, cations and osmotic pressure on cellular responses, cells in 10 mM Cl- buffer, zfT1R2a/zfT1R3
Type: cell-based, zebrafish
Details: for response to fixed concentration of L-Pro on coapplication: coapplied with 160 µM L-Pro, final [Cl-]o up to 60 mM
Method: Cells were seeded in 96-well plates coated with ε-poly-L-lysine at approximately 70,000 cells per well. […] Fluorescence changes were monitored at 2 s intervals, as described above. […] Three independent experiments were conducted for each receptor, and representative results are shown as the mean ± SEM (n = 3 replicates). Statistical tests were conducted using KyPlot version 6.0 (KyensLab Inc., Tokyo, Japan). Statistical significance was set at p < 0.05.

O=C([O-])[C@H](O)[C@@H](O)[C@H](O)[C@H](O)CO.[Na+] [Na-gluconate, sodium gluconate]
response to fixed concentration of L-Pro on coapplication: did not enhance

[Cl-].[Na+] [NaCl]
response to fixed concentration of L-Pro on coapplication: enhanced
cellular response to the salt alone (without agonist): did not elicit

From PMC10539361, “Allosteric modulation of the fish taste receptor type 1 (T1R) family by the extracellular chloride ion” (Scientific Reports, 2023)
